Patent US20110319640A1, “LARGE-SCALE PURIFICATION OF 2-PYRONE-4,6-DICARBOXYLIC ACID” (KABUSHIKI KAISHA TOYOTA JIDOSHOKKI, priority 2007, published 2011)

Assay: water solubility of PDC and PDC complex salts (FIG. 2)
Format: physicochemical
Conditions: in water; free compound
Text: Hereinafter, a complex salt formed centering on the Carbonyl group of PDC may be referred to as “a PDC complex salt,” in order to distinguish from a complex salt described in the section of salts of cations. The structure of a […] complex salt is described in many references (for example, Acta. Cryst. (1992) C48, 460-465).

`O=C(O)c1cc(C(=O)O)oc(=O)c1` [free PDC, 2-pyrone-4,6-dicarboxylic acid] gave a water solubility of 182 mM.
